CN106344577A, “Fistulains A在抗幽门螺杆菌药物中的应用” (Quanjiao Xianqi Pharmaceutical Technology Co Ltd, priority 2016, dated 2017)
Converted amounts (≈) assume the structure as drawn.

Tested on: Helicobacter pylori (幽门螺杆菌)
Assay: Agar dilution method, MIC against H. pylori
Type: cell-based
Details: same value for each of 6 strains: 5 random clinical strains (Hp001, Hp003, Hp004, Hp018, Hp036) and standard strain ATCC43504, complete growth inhibition, 37℃, 72 h, microaerobic, read-out: minimum inhibitory concentration (MIC)

CC1(C)S[C@@H]2[C@H](NC(=O)[C@H](N)c3ccccc3)C(=O)N2[C@H]1C(=O)O [氨苄西林]
MIC: 3.3 µg/mL (≈ 9.44 µM)
